Laboratory results published in patent publication EP4635950A1, “NOVEL CRYSTAL FORM OF GLP-1 RECEPTOR AGONIST, METHOD FOR PREPARING SAME, PHARMACEUTICAL COMPOSITION THEREOF, AND USE THEREOF” (Hangzhou Zhongmeihuadong Pharmaceutical Co., Ltd., priority 2022, dated 2024).
“Also recorded” adds a separate entry of the source.

What was measured:
[1] = Crystal form change on heating in the DSC test; type: physicochemical
[2] = Crystal form stability on drying or sealed storage; type: physicochemical
Description: The 4 metastable crystal forms described in Example 4 had lower crystal form stability than each crystal form described in Example 3.

[3] = heated to 120 °C for 10 minutes

Row | SMILES | crystal form change on heating [1, 3] | further results
1 | O=C(O)c1ccc2nc(CN3CCC(c4cccc(OCc5ccc(C6COC6)cc5F)n4)CC3)n(C[C@@H]3CCO3)c2c1 [Crystal Form D, (S)-2-((4-(6-((2-fluoro-4-(oxetan-3-yl)benzyl)oxy)pyridin-2-yl)piperidin-1-yl)methyl)-1-(oxetan-2-ylmethyl)-1H-benzo[d]imidazole-6-carboxylic acid] | converts into an amorphous form | –
2 | O=C(O)c1ccc2nc(CN3CCC(c4cccc(OCc5ccc(C6COC6)cc5F)n4)CC3)n(C[C@@H]3CCO3)c2c1 [Crystal Form N, (S)-2-((4-(6-((2-fluoro-4-(oxetan-3-yl)benzyl)oxy)pyridin-2-yl)piperidin-1-yl)methyl)-1-(oxetan-2-ylmethyl)-1H-benzo[d]imidazole-6-carboxylic acid] | transforms into an amorphous form | –
3 | O=C(O)c1ccc2nc(CN3CCC(c4cccc(OCc5ccc(C6COC6)cc5F)n4)CC3)n(C[C@@H]3CCO3)c2c1 [Crystal Form F, (S)-2-((4-(6-((2-fluoro-4-(oxetan-3-yl)benzyl)oxy)pyridin-2-yl)piperidin-1-yl)methyl)-1-(oxetan-2-ylmethyl)-1H-benzo[d]imidazole-6-carboxylic acid] | – | crystal form change after storage ([2]; sealed conditions at room temperature for 21 days): transforms into Crystal Form D; also recorded: transformed into stable Crystal Form D
4 | O=C(O)c1ccc2nc(CN3CCC(c4cccc(OCc5ccc(C6COC6)cc5F)n4)CC3)n(C[C@@H]3CCO3)c2c1 [Crystal Form E, (S)-2-((4-(6-((2-fluoro-4-(oxetan-3-yl)benzyl)oxy)pyridin-2-yl)piperidin-1-yl)methyl)-1-(oxetan-2-ylmethyl)-1H-benzo[d]imidazole-6-carboxylic acid] | converts into an amorphous form | –
5 | O=C(O)c1ccc2nc(CN3CCC(c4cccc(OCc5ccc(C6COC6)cc5F)n4)CC3)n(C[C@@H]3CCO3)c2c1 [Crystal Form Ix, (S)-2-((4-(6-((2-fluoro-4-(oxetan-3-yl)benzyl)oxy)pyridin-2-yl)piperidin-1-yl)methyl)-1-(oxetan-2-ylmethyl)-1H-benzo[d]imidazole-6-carboxylic acid] | converts into an amorphous form | –
6 | O=C(O)c1ccc2nc(CN3CCC(c4cccc(OCc5ccc(C6COC6)cc5F)n4)CC3)n(C[C@@H]3CCO3)c2c1 [Crystal Form C, (S)-2-((4-(6-((2-fluoro-4-(oxetan-3-yl)benzyl)oxy)pyridin-2-yl)piperidin-1-yl)methyl)-1-(oxetan-2-ylmethyl)-1H-benzo[d]imidazole-6-carboxylic acid] | – | crystal form change on heating ([1]; heated to 110°C for 5 minutes): transforms into an amorphous form
7 | O=C(O)c1ccc2nc(CN3CCC(c4cccc(OCc5ccc(C6COC6)cc5F)n4)CC3)n(C[C@@H]3CCO3)c2c1 [Crystal Form L, (S)-2-((4-(6-((2-fluoro-4-(oxetan-3-yl)benzyl)oxy)pyridin-2-yl)piperidin-1-yl)methyl)-1-(oxetan-2-ylmethyl)-1H-benzo[d]imidazole-6-carboxylic acid] | transforms into an amorphous form | –
8 | O=C(O)c1ccc2nc(CN3CCC(c4cccc(OCc5ccc(C6COC6)cc5F)n4)CC3)n(C[C@@H]3CCO3)c2c1 [Crystal Form O, (S)-2-((4-(6-((2-fluoro-4-(oxetan-3-yl)benzyl)oxy)pyridin-2-yl)piperidin-1-yl)methyl)-1-(oxetan-2-ylmethyl)-1H-benzo[d]imidazole-6-carboxylic acid] | transforms into an amorphous form | –
9 | O=C(O)c1ccc2nc(CN3CCC(c4cccc(OCc5ccc(C6COC6)cc5F)n4)CC3)n(C[C@@H]3CCO3)c2c1 [Crystal Form B, (S)-2-((4-(6-((2-fluoro-4-(oxetan-3-yl)benzyl)oxy)pyridin-2-yl)piperidin-1-yl)methyl)-1-(oxetan-2-ylmethyl)-1H-benzo[d]imidazole-6-carboxylic acid] | – | crystal form change after drying ([2]; dried at 50°C for 3 hours): transforms into an amorphous form; also recorded: convert into an amorphous form
10 | O=C(O)c1ccc2nc(CN3CCC(c4cccc(OCc5ccc(C6COC6)cc5F)n4)CC3)n(C[C@@H]3CCO3)c2c1 [Crystal Form H, (S)-2-((4-(6-((2-fluoro-4-(oxetan-3-yl)benzyl)oxy)pyridin-2-yl)piperidin-1-yl)methyl)-1-(oxetan-2-ylmethyl)-1H-benzo[d]imidazole-6-carboxylic acid] | – | crystal form change after drying ([2]; dried at 50°C for 2 hours): transforms into a weakly crystalline state; also recorded: showed a weak crystalline state
11 | O=C(O)c1ccc2nc(CN3CCC(c4cccc(OCc5ccc(C6COC6)cc5F)n4)CC3)n(C[C@@H]3CCO3)c2c1 [Crystal Form K, (S)-2-((4-(6-((2-fluoro-4-(oxetan-3-yl)benzyl)oxy)pyridin-2-yl)piperidin-1-yl)methyl)-1-(oxetan-2-ylmethyl)-1H-benzo[d]imidazole-6-carboxylic acid] | – | crystal form change on heating ([1]; heated to 110 °C for 10 minutes): transforms into an amorphous form
12 | O=C(O)c1ccc2nc(CN3CCC(c4cccc(OCc5ccc(C6COC6)cc5F)n4)CC3)n(C[C@@H]3CCO3)c2c1 [Crystal Form M, (S)-2-((4-(6-((2-fluoro-4-(oxetan-3-yl)benzyl)oxy)pyridin-2-yl)piperidin-1-yl)methyl)-1-(oxetan-2-ylmethyl)-1H-benzo[d]imidazole-6-carboxylic acid] | – | crystal form change on heating ([1]; heated to 105 °C for 10 minutes): transforms into an amorphous form
13 | O=C(O)c1ccc2nc(CN3CCC(c4cccc(OCc5ccc(C6COC6)cc5F)n4)CC3)n(C[C@@H]3CCO3)c2c1 [Crystal Form P, (S)-2-((4-(6-((2-fluoro-4-(oxetan-3-yl)benzyl)oxy)pyridin-2-yl)piperidin-1-yl)methyl)-1-(oxetan-2-ylmethyl)-1H-benzo[d]imidazole-6-carboxylic acid] | – | crystal form change after drying ([2]; dried at 50°C for 3.5 hours): transforms into an amorphous form; also recorded: convert into an amorphous form
14 | O=C(O)c1ccc2nc(CN3CCC(c4cccc(OCc5ccc(C6COC6)cc5F)n4)CC3)n(C[C@@H]3CCO3)c2c1 [Crystal Form J, (S)-2-((4-(6-((2-fluoro-4-(oxetan-3-yl)benzyl)oxy)pyridin-2-yl)piperidin-1-yl)methyl)-1-(oxetan-2-ylmethyl)-1H-benzo[d]imidazole-6-carboxylic acid] | transforms into an amorphous form | –
